{"source": "patent US20070259016A1", "about": "“Method of treating crops with submicron chlorothalonil” (priority 2006, published 2007)", "origin": "cited, not measured here", "key": {"[1]": {"details": "at 170 C."}, "[2]": {"details": "acid and neutral aqueous preparations"}}}
{"smiles": "N#Cc1c(Cl)c(Cl)c(Cl)c(C#N)c1Cl", "note": "[chlorothalonil, 2,4,5,6-tetrachloro-1,3-dicyanobenzene]", "values": [{"measurement": "volatility", "setting": "[1]", "result": 9.2, "unit": "mmHg"}, {"measurement": "solubility in acetone and xylene", "setting": "acetone and xylene", "result": "slightly soluble"}, {"measurement": "solubility in water", "setting": "water", "result": "0.6-1.2 ppm"}, {"measurement": "stability in aqueous preparations", "setting": "[2]", "result": "relatively stable"}]}
